In article PMC6691133, “Targeting PFKFB3 alleviates cerebral ischemia-reperfusion injury in mice” (Scientific Reports, 2019):

Target: T1, 6-phosphofructo-2-kinase/fructose-2,6-bisphosphatase-3 (PFKFB3) (Homo sapiens, UniProt Q16875)
T1 construct: Recombinant full length human PFKFB3 protein purified from Sf9 baculoviral system
Assay: ADP-Glo kinase assay with recombinant PFKFB3 (ATP + F6P)
Assay type: biochemical

T1 sequence (Q16875 whole entry): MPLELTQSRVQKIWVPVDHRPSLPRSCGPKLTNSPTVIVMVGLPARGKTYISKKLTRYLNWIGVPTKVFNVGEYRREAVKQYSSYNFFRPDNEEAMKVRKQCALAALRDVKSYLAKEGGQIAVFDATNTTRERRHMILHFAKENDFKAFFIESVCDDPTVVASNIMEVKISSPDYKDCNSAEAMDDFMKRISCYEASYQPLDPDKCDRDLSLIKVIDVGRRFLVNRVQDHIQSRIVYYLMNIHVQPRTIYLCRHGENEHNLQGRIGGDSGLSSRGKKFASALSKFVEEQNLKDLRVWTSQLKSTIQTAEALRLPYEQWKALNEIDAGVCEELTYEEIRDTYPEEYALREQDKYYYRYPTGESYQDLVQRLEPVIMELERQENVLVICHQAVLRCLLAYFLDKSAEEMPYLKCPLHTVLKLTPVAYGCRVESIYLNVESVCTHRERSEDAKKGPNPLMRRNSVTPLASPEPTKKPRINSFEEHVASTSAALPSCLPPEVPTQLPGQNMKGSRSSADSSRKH

For `Cc1noc(C)c1Cn1cc(C#N)c2cc(Oc3ccc(NC(=O)[C@@H]4CCCN4)cc3)ccc21` [AZ67], the IC50 was 18 nM.
